# Measured values from PMC10999543, “Identification of kinase modulators as host-directed therapeutics against intracellular methicillin-resistant Staphylococcus aureus” (Frontiers in Cellular and Infection Microbiology, 2024).
# Like-named read-outs stand apart in the source and are kept apart here.
# How the values were obtained:
# intracellular MRSA = format: cell-based, Staphylococcus aureus; details: for %GFP+ rep 1 / z-scoreMRSA+ rep 1: replicate 1; for %GFP+ rep 2 / z-scoreMRSA+ rep 2: replicate 2; for %GFP+ rep 3 / z-scoreMRSA+ rep 3: replicate 3; for z-scoreMRSA+ mean: mean of 3 replicates; for %GFP+ rep 1: test concentration or dose not given here; for %GFP+ rep 2: test concentration or dose not given here; for %GFP+ rep 3: test concentration or dose not given here; for effect: test concentration or dose not given here; for z-scoreMRSA+ mean: test concentration or dose not given here; for z-scoreMRSA+ rep 1: test concentration or dose not given here; for z-scoreMRSA+ rep 2: test concentration or dose not given here; for z-scoreMRSA+ rep 3: test concentration or dose not given here
# How it was run: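 Values are z-scores: GFP-positive HeLa percentage and event count per well against plate statistics, minus the mean DMSO z-score. Wells deviating two-fold from controls were left out of plate means. Infection was at a mean MOI of 6.8, with an overnight compound exposure.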
# HeLa cells = assay: Compound screen by flow cytometry: HeLa cell count as surrogate readout of cell viability (z-scoreHeLa); format: cell-based, human; details: for cell count rep 1 / z-scoreHeLa rep 1: replicate 1; for cell count rep 2 / z-scoreHeLa rep 2: replicate 2; for cell count rep 3 / z-scoreHeLa rep 3: replicate 3; for z-scoreHeLa mean: mean of 3 replicates; for all read-outs here: test concentration or dose not given here
# How it was run: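 The viability surrogate was the count of fixed HeLa cells by flow cytometry, converted to z-scores against DMSO controls with values deviating two-fold excluded. Before counting, cells had been infected with MRSA for 1 h and cleared of extracellular bacteria with gentamicin. They were then exposed overnight to kinase inhibitors in triplicate.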
# [1] = PKIS compound screen raw data, MRSA-infected HeLa cells
# [2] = PKIS compound screen, MRSA-infected HeLa cells
# [3] = PKIS compound screen, Yes/No call
# [4] = PKIS compound screen, Yes/No call (effect without cell death)
# [5] = PKIS compound screen, Yes/No call on z-scoreMRSA+
# [6] = PKIS compounds raw data, MRSA-infected HeLa cells
# [7] = PKIS compound screen raw data, HeLa cell count
# [8] = PKIS compound screen, HeLa cell count
# [9] = PKIS compound screen, Yes/No call on z-scoreHeLa
# [10] = PKIS compounds raw data, HeLa cell count
# [11] = Yes/No: effect without cell death
# [12] = compound screen, MRSA-infected HeLa cells
# [13] = compound screen, HeLa cell count
SMILES,%GFP+ rep 1 (intracellular MRSA; [1]) [%],%GFP+ rep 2 (intracellular MRSA; [1]) [%],%GFP+ rep 3 (intracellular MRSA; [1]) [%],z-scoreMRSA+ mean (intracellular MRSA; [2]),z-scoreMRSA+ rep 1 (intracellular MRSA; [2]),z-scoreMRSA+ rep 2 (intracellular MRSA; [2]),z-scoreMRSA+ rep 3 (intracellular MRSA; [2]),effect (intracellular MRSA; [3]),hit (intracellular MRSA; [4]),effect (intracellular MRSA; [5]),z-scoreMRSA+ mean (intracellular MRSA; PKIS compound screen),z-scoreMRSA+ rep 1 (intracellular MRSA; PKIS compound screen),cell count rep 1 (HeLa cells; [7]),cell count rep 2 (HeLa cells; [7]),cell count rep 3 (HeLa cells; [7]),z-scoreHeLa mean (HeLa cells; [8]),z-scoreHeLa rep 1 (HeLa cells; [8]),z-scoreHeLa rep 2 (HeLa cells; [8]),z-scoreHeLa rep 3 (HeLa cells; [8]),cell death (HeLa cells; [9]),also measured
Fc1cc(Cl)ccc1Nc1ccnc2cc(-c3ccc(CN4CCOCC4)o3)ccc12 [GW560109X],14.2,18.0,17.4,-0.89,-1.22,-0.38,-1.05,No,No,No,0.05,0.36,37673,25490,23726,0.75,1.27,0.037,0.94,No,z-scoreMRSA+ rep 2 (intracellular MRSA; PKIS compound screen): -0.28; z-scoreMRSA+ rep 3 (intracellular MRSA; PKIS compound screen): 0.06; %GFP+ rep 1 (intracellular MRSA; [6]): 28.9%; %GFP+ rep 2 (intracellular MRSA; [6]): 24.6%; %GFP+ rep 3 (intracellular MRSA; [6]): 27.6%; cell death (HeLa cells; [3]): No; z-scoreHeLa mean (HeLa cells; PKIS compound screen): 0.33; z-scoreHeLa rep 1 (HeLa cells; PKIS compound screen): -0.12; z-scoreHeLa rep 2 (HeLa cells; PKIS compound screen): 0.0321; z-scoreHeLa rep 3 (HeLa cells; PKIS compound screen): 1.09; cell count rep 1 (HeLa cells; [10]): 5844; cell count rep 2 (HeLa cells; [10]): 6056; cell count rep 3 (HeLa cells; [10]): 7316
Fc1cc(Cl)ccc1Nc1ccnc2cc(-c3ccc(CN4CCCCC4)o3)ccc12 [GW560116X],26.5,26.3,25.6,,,,,,,,,,2203,2204,1264,,,,,,effect (intracellular MRSA; Yes/No call from z-scoreMRSA+): No; hit (intracellular MRSA; [11]): No; z-scoreMRSA+ mean (intracellular MRSA; [12]): 0.73; z-scoreMRSA+ rep 1 (intracellular MRSA; [12]): 0.29; z-scoreMRSA+ rep 2 (intracellular MRSA; [12]): 0.89; z-scoreMRSA+ rep 3 (intracellular MRSA; [12]): 1.02; cell death (HeLa cells; Yes/No call from z-scoreHeLa): No; z-scoreHeLa mean (HeLa cells; [13]): -1.89; z-scoreHeLa rep 1 (HeLa cells; [13]): -1.55; z-scoreHeLa rep 2 (HeLa cells; [13]): -1.61; z-scoreHeLa rep 3 (HeLa cells; [13]): -2.51
c1ccc(Oc2ccc(Nc3ccnc4cc(-c5ccc(CN6CCNCC6)o5)ccc34)cc2)nc1 [GW567142A],18.2,19.4,17.4,-0.40,-0.15,-0.00228,-1.05,,No,No,,,37910,29813,27656,1.26,1.31,0.78,1.70,No,
c1ccc(Oc2ccc(Nc3ccnc4cc(-c5ccc(CNCCN6CCOCC6)o5)ccc34)cc2)nc1 [GW567145X],20.5,21.2,22.8,0.46,0.46,0.49,0.43,No,No,No,-0.39,-0.38,29321,19879,15455,-0.58,-0.15,-0.93,-0.68,No,z-scoreMRSA+ rep 2 (intracellular MRSA; PKIS compound screen): -0.37; z-scoreMRSA+ rep 3 (intracellular MRSA; PKIS compound screen): -0.40; %GFP+ rep 1 (intracellular MRSA; [6]): 25.1%; %GFP+ rep 2 (intracellular MRSA; [6]): 24.1%; %GFP+ rep 3 (intracellular MRSA; [6]): 25.1%; cell death (HeLa cells; [3]): No; z-scoreHeLa mean (HeLa cells; PKIS compound screen): 0.19; z-scoreHeLa rep 1 (HeLa cells; PKIS compound screen): 0.019; z-scoreHeLa rep 2 (HeLa cells; PKIS compound screen): 0.89; z-scoreHeLa rep 3 (HeLa cells; PKIS compound screen): -0.32; cell count rep 1 (HeLa cells; [10]): 6078; cell count rep 2 (HeLa cells; [10]): 7342; cell count rep 3 (HeLa cells; [10]): 5085
OCCCNc1nccc(-c2c(-c3ccc(F)cc3)nn3cc(C(F)(F)F)ccc23)n1 [GW569293E],17.0,16.9,19.3,-0.30,-0.27,-0.49,-0.15,,No,No,,,13158,40183,38241,-0.14,-1.06,1.01,-0.36,No,
Cc1ccc(Nc2ccnc(Nc3cccc(C(N)=O)c3)n2)cc1O [GW575808A],13.4,14.8,16.1,-1.22,-1.41,-1.12,-1.12,,No,No,,,19398,38059,43165,0.31,-0.11,0.61,0.42,No,
COc1cc(Nc2ccnc3ccc(C(F)(F)F)cc23)cc(OC)c1OC [GW577382X],19.6,17.8,18.8,,,,,,,,,,2914,2336,2608,,,,,,effect (intracellular MRSA; Yes/No call from z-scoreMRSA+): No; hit (intracellular MRSA; [11]): No; z-scoreMRSA+ mean (intracellular MRSA; [12]): -1.17; z-scoreMRSA+ rep 1 (intracellular MRSA; [12]): -1.32; z-scoreMRSA+ rep 2 (intracellular MRSA; [12]): -1.17; z-scoreMRSA+ rep 3 (intracellular MRSA; [12]): -1.02; cell death (HeLa cells; Yes/No call from z-scoreHeLa): No; z-scoreHeLa mean (HeLa cells; [13]): -1.40; z-scoreHeLa rep 1 (HeLa cells; [13]): -1.04; z-scoreHeLa rep 2 (HeLa cells; [13]): -1.51; z-scoreHeLa rep 3 (HeLa cells; [13]): -1.66
COc1cc(/C=N/Nc2ncnc3[nH]ncc23)ccc1O [GW578748X],,,,,,,,No,No,,-1.18,-0.92,,,,,,,,,z-scoreMRSA+ rep 2 (intracellular MRSA; PKIS compound screen): -1.14; z-scoreMRSA+ rep 3 (intracellular MRSA; PKIS compound screen): -1.48; %GFP+ rep 1 (intracellular MRSA; [6]): 10.3%; %GFP+ rep 2 (intracellular MRSA; [6]): 10.1%; %GFP+ rep 3 (intracellular MRSA; [6]): 10.9%; cell death (HeLa cells; [3]): No; z-scoreHeLa mean (HeLa cells; PKIS compound screen): 0.25; z-scoreHeLa rep 1 (HeLa cells; PKIS compound screen): -0.52; z-scoreHeLa rep 2 (HeLa cells; PKIS compound screen): 1.00; z-scoreHeLa rep 3 (HeLa cells; PKIS compound screen): 0.26; cell count rep 1 (HeLa cells; [10]): 4206; cell count rep 2 (HeLa cells; [10]): 5592; cell count rep 3 (HeLa cells; [10]): 7495
CS(=O)(=O)CCNCc1nc(-c2ccc3ncnc(Nc4ccc(OCc5ccccc5)c(Cl)c4)c3c2)cs1 [GW582764A],15.6,19.2,19.4,,,,,,,,,,3605,3519,4776,,,,,,effect (intracellular MRSA; Yes/No call from z-scoreMRSA+): No; hit (intracellular MRSA; [11]): No; z-scoreMRSA+ mean (intracellular MRSA; [12]): -1.31; z-scoreMRSA+ rep 1 (intracellular MRSA; [12]): -2.25; z-scoreMRSA+ rep 2 (intracellular MRSA; [12]): -0.83; z-scoreMRSA+ rep 3 (intracellular MRSA; [12]): -0.84; cell death (HeLa cells; Yes/No call from z-scoreHeLa): No; z-scoreHeLa mean (HeLa cells; [13]): -0.48; z-scoreHeLa rep 1 (HeLa cells; [13]): -0.54; z-scoreHeLa rep 2 (HeLa cells; [13]): -0.60; z-scoreHeLa rep 3 (HeLa cells; [13]): -0.29
